Literature values in patent publication US8765149B2, “Low-oil pharmaceutical emulsion compositions comprising progestogen” (Besins Healthcare Luxembourg Sarl, priority 2010, dated 2014).

Test system: TBI patients
Conditions: two recent clinical trials

CC(=O)[C@H]1CC[C@H]2[C@@H]3CCC4=CC(=O)CC[C@]4(C)[C@H]3CC[C@]12C [progesterone, pregn-4-ene-3,20-dione]
mortality of TBI patients: decreased mortality
safety in TBI patients: safe and well tolerated
